According to patent publication US6632981B1, “DNA sequences encoding polypeptides having beta-1,3-glucanase activity” (Novartis Finance Corporation, priority 1988, dated 2003):

Columns and labels:
[1] = test system: endogenous PR-1a gene; assay: Assay for chemical induction of the endogenous PR-1a gene (mRNA, primer extension); format: in vivo; conditions: tobacco plant materials, control procedure
Method: 50 g of total RNA is lyophilized in a 500 l Eppendorf tube. The RNA is resuspended in 30 l of radiolabeled probe solution and heated to 70′ C. for 10 minutes. The tube is slowly cooled to 37° C. and allowed to incubate overnight. Without removing the tube from the 37° C. water bath, 2 l of 10×reverse-transcriptase buffer (500 mM Tris-HCl, pH 7.5, 400 mM KCl, 30 mM MgCl2), 1 l 5 mg/ml bovine serum albumin, 5 l 100 mM dithiothreitol, 5 l 10×dNTPs (10 mM of each dNTP in H2O), 3 l H 20, 2 l RNasin (80 units), and 2 l reverse transcriptase (400 units) are added and the reaction is incubated at 37° C. for 30 minutes. To stop the reaction, 5 l of 3 M sodium acetate, pH 5, and 150 l absolute ethanol are added. The tube is left at −20° C. for 30 minutes, the precipitate is collected by centrifugation, washed with 80% ethanol and allowed to air-dry. The precipitate is resuspended in 10-20 l of loading dye (90% formamide, 0.05% bromophenol blue, 0.05% xylene cyanol, 1 mM EDTA) and the extension products are separated on a 6% sequencing gel (Maniatis, T. et al., supra). Extension products are visualized by autoradiography.
As a control procedure, tobacco plant materials induced as described in Examples 139-141 by salicylic acid, methyl benzo-1,2,3-thiadiazole-7-carboxylate and TMV are assayed for transcription of mRNA from the endogenous PR-1a gene by the methods described in Example 6.

[2] = test system: chimeric PR-1a/GUS gene; assay: Transient GUS expression in tobacco protoplasts treated with pCIB269; format: cell-based, N. tabacum; conditions: H2O 30.6 13
Method: B. DNA is introduced into protoplasts by a modification of the method of Negrutiu, I. et al., Plant Mol. Biol. 8: 363 (1987). The protoplasts prepared as described in part A are resuspended following the last washing step in a solution consisting of 0.4 M mannitol, 15-30 mM CaCl2, 0.1% w/v MES at a density of 1.6-2×10^6 per ml. The protoplast suspension is distributed as 0.5 ml aliquots into 10 ml plastic centrifuge tubes. DNA such as that described in Examples 28 to 40 is added in 10 l sterile distilled water, sterilized as described by Paszkowski, J. et al., EMBO J. 3: 2717 (1984), and then 0.5 ml of the PEG solution (40% (w/v) PEG MW 8000 in 0.4 M mannitol, 0.1 M Ca(NO3)2, pH 7.0) is added. The solutions are mixed gently and incubated for 30 minutes at room temperature (about 24° C.) with occasional shaking. 1 ml of the wash solution is then added, and the contents of the tube gently mixed. […]
The reactions are carried out in the wells of ELISA plates by mixing 5-25 l extract with 120-100 l GUS assay buffer (50 mM sodium phosphate buffer pH 7.0, 0.1% Triton X-100, 10 mM β-mercaptoethanol) containing 4-methyl umbelliferyl glucuronide (MU) at a final concentration of 2 mM in a total volume of 125 l. […] The concentration of fluorescent indicator released is determined by reading the plate on a Flow Labs Fluoroskan II ELISA plate reader.

Row | SMILES | transcription of mRNA from the endogenous PR-1a gene [1] | GUS activity, transient expression [2] [pKat MU/mg protein]
1 | COC(=O)c1cccc2nnsc12 [Methyl benzo-1,2,3-thiadiazole-7-carboxylate] | Elevated levels of mRNA | 66.6
2 | O=C(O)c1ccccc1O [Salicylic acid, salicylic acid] | Elevated levels of mRNA | –
